# Patent US8618153B2, “Hepatitis C virus inhibitors” (Bristol-Myers Squibb Company, priority 2009, dated 2013)
# Read-outs that look alike come from different tables or passages of the source.
# System: HCV 1b genotype
# Assay: HCV Replicon assay (HCV-neo replicon cells), 1b genotype
# Assay type: cell-based
# Settings: Hepatitis C virus, HCV 1b genotype replicon, read-out: 1b EC50 (in μM or range)
# Method: An HCV Replicon assay was utilized in the present disclosure, and was prepared, conducted and validated as described in commonly owned PCT/US2006/022197 and in O'Boyle et al., Antimicrob. Agents Chemother., 49(4):1346-1353 (April 2005). Assay methods incorporating luciferase reporters have also been used as described (Apath.com).
# HCV-neo replicon cells and replicon cells containing mutations in the NS5A region were used to test the currently described family of compounds. The compounds were determined to have more than 10-fold less inhibitory activity on cells containing mutations than wild-type cells. Thus, the compounds of the present disclosure can be effective in inhibiting the function of the HCV NS5A protein and are understood to be as effective in combinations as previously described in application PCT/US2006/022197 and commonly owned WO 04/014852. Further, the compounds of the present disclosure can be effective against the HCV 1b genotype. It should also be understood that the compounds of the present disclosure can inhibit multiple genotypes of HCV. […] In one embodiment compounds of the present disclosure are inhibitory versus 1a, 1b, 2a, 2b, 3a, 4a, and 5a genotypes. […] The compounds of the present disclosure may inhibit HCV by mechanisms in addition to or other than NS5A inhibition. In one embodiment the compounds of the present disclosure inhibit HCV replicon and in another embodiment the compounds of the present disclosure inhibit NS5A.
SMILES,EC50 (value given as range class),EC50 (numeric value)
"COC(=O)N[C@@H](C)C(=O)N1CCC[C@H]1c1ncc(-c2ccc(-c3ccc(-c4cnc([C@@H]5CCCN5C(=O)[C@H](C)NC(=O)OC)[nH]4)s3)s2)[nH]1 [Example 1, Methyl ((1S)-2-((2S)-2-(4-(5′-(2-((2S)-1-(N-(methoxycarbonyl)-L-alanyl)-2-pyrrolidinyl)-1H-imidazol-4-yl)-2,2′-bithiophen-5-yl)-1H-imidazol-2-yl)-1-pyrrolidinyl)-1-methyl-2-oxoethyl)carbamate]",< 1 nM,
"COCC[C@H](NC(=O)OC)C(=O)N1CCC[C@H]1c1ncc(-c2ccc(-c3ccc(-c4cnc([C@@H]5CCCN5C(=O)[C@H](CCOC)NC(=O)OC)[nH]4)s3)s2)[nH]1 [Example 2, Methyl ((1S)-3-methoxy-1-(((2S)-2-(4-(5′-(2-((2S)-1-(N-(methoxycarbonyl)-O-methyl-L-homoseryl)-2-pyrrolidinyl)-1H-imidazol-4-yl)-2,2′-bithiophen-5-yl)-1H-imidazol-2-yl)-1-pyrrolidinyl)carbonyl)propyl)carbamate]",< 1 nM,
"COC(=O)N[C@@H](C(=O)N1CCC[C@H]1c1ncc(-c2ccc(-c3ccc(-c4cnc([C@@H]5CCCN5C(=O)[C@H](NC(=O)OC)C(C)C)[nH]4)s3)s2)[nH]1)C(C)C [Example 3, Methyl ((1R)-1-(((2S)-2-(4-(5′-(2-((2S)-1-((2R)-2-((methoxycarbonyl)amino)-3-methylbutanoyl)-2-pyrrolidinyl)-1H-imidazol-4-yl)-2,2′-bithiophen-5-yl)-1H-imidazol-2-yl)-1-pyrrolidinyl)carbonyl)-2-methylpropyl)carbamate]",10 to 10000 nM,
"COC(=O)N[C@@H](C(=O)N1CCC[C@H]1c1ncc(-c2ccc(-c3ccc(-c4cnc([C@@H]5CCCN5C(=O)[C@H](NC(=O)OC)c5ccccc5)[nH]4)s3)s2)[nH]1)c1ccccc1 [Example 4, Dimethyl (2,2′-bithiene-5,5′-diylbis(1H-imidazole-4,2-diyl(2S)-2,1-pyrrolidinediyl((1R)-2-oxo-1-phenyl-2,1-ethanediyl)))biscarbamate]",< 1 nM,
"CN(C)[C@@H](C(=O)N1CCC[C@H]1c1ncc(-c2ccc(-c3ccc(-c4cnc([C@@H]5CCCN5C(=O)[C@@H](c5ccccc5)N(C)C)[nH]4)s3)s2)[nH]1)c1ccccc1 [Example 5, (1R′,1′R)-2,2′-(2,2′-Bithiene-5,5′-diylbis(1H-imidazole-4,2-diyl(2S)-2,1-pyrrolidinediyl))bis(N,N-dimethyl-2-oxo-1-phenylethanamine)]",< 1 nM,
"COC(=O)N[C@H](C(=O)N1CCC[C@H]1c1ncc(-c2ccc(-c3ccc(-c4cnc([C@@H]5CCCN5C(=O)[C@@H](NC(=O)OC)C(C)C)[nH]4)s3)s2)[nH]1)C(C)C [Example 6, Methyl ((1S)-1-(((2S)-2-(4-(5′-(2-((2S)-1-((2S)-2-((methoxycarbonyl)amino)-3-methylbutanoyl)-2-pyrrolidinyl)-1H-imidazol-4-yl)-2,2′-bithiophen-5-yl)-1H-imidazol-2-yl)-1-pyrrolidinyl)carbonyl)-2-methylpropyl)carbamate]",,0.003 nM
"COC(=O)N[C@H](C(=O)N1CCC[C@H]1c1ncc(-c2ccc(-c3ccc(-c4cnc([C@@H]5CCCN5C(=O)[C@@H](NC(=O)OC)C5CC5)[nH]4)s3)s2)[nH]1)C1CC1 [Example 7, Dimethyl (2,2′-bithiene-5,5′-diylbis(1H-imidazole-4,2-diyl(2S)-2,1-pyrrolidinediyl((1S)-1-cyclopropyl-2-oxo-2,1-ethanediyl)))biscarbamate]",< 1 nM,
"CN(C)[C@@H](C(=O)N1CCC[C@H]1c1ncc(-c2ncc(-c3cnc(-c4cnc([C@@H]5CCCN5C(=O)[C@@H](c5ccccc5)N(C)C)[nH]4)s3)s2)[nH]1)c1ccccc1 [Example 8, (1R,1′R)-2,2′-(5,5′-Bi-1,3-thiazole-2,2′-diylbis(1H-imidazole-4,2-diyl(2S)-2,1-pyrrolidinediyl))bis(N,N-dimethyl-2-oxo-1-phenylethanamine)]",< 1 nM,
"COC(=O)N[C@@H](C(=O)N1CCC[C@H]1c1ncc(-c2ncc(-c3cnc(-c4cnc([C@@H]5CCCN5C(=O)[C@H](NC(=O)OC)c5ccccc5)[nH]4)s3)s2)[nH]1)c1ccccc1 [Example 9, Dimethyl (5,5′-bi-1,3-thiazole-2,2′-diylbis(1H-imidazole-4,2-diyl(2S)-2,1-pyrrolidinediyl((1R)-2-oxo-1-phenyl-2,1-ethanediyl)))biscarbamate]",< 1 nM,
"COC(=O)N[C@H](C(=O)N1CCC[C@H]1c1ncc(-c2ncc(-c3cnc(-c4cnc([C@@H]5CCCN5C(=O)[C@@H](NC(=O)OC)C(C)C)[nH]4)s3)s2)[nH]1)C(C)C [Example 10, Methyl ((1S)-1-(((2S)-2-(4-(2′-(2-((2S)-1-((2S)-2-((methoxycarbonyl)amino)-3-methylbutanoyl)-2-pyrrolidinyl)-1H-imidazol-4-yl)-5,5′-bi-1,3-thiazol-2-yl)-1H-imidazol-2-yl)-1-pyrrolidinyl)carbonyl)-2-methylpropyl)carbamate]",1 to 10 nM,
"COC(=O)N[C@@H](C(=O)N1CCC[C@H]1c1ncc(-c2ncc(-c3cnc(-c4cnc([C@@H]5CCCN5C(=O)[C@H](NC(=O)OC)C(C)C)[nH]4)s3)s2)[nH]1)C(C)C [Example 11, Methyl ((1R)-1-(((2S)-2-(4-(2′-(2-((2S)-1-((2R)-2-((methoxycarbonyl)amino)-3-methylbutanoyl)-2-pyrrolidinyl)-1H-imidazol-4-yl)-5,5′-bi-1,3-thiazol-2-yl)-1H-imidazol-2-yl)-1-pyrrolidinyl)carbonyl)-2-methylpropyl)carbamate]",,5860 nM
"COC(=O)N[C@H](C(=O)N1CCC[C@H]1c1ncc(-c2ncc(-c3cnc(-c4cnc([C@@H]5CCCN5C(=O)[C@@H](NC(=O)OC)[C@@H](C)OC)[nH]4)s3)s2)[nH]1)[C@@H](C)OC [Example 12, Methyl ((1S,2R)-2-methoxy-1-(((2S)-2-(4-(2′-(2-((2S)-1-(N-(methoxycarbonyl)-O-methyl-L-threonyl)-2-pyrrolidinyl)-1H-imidazol-4-yl)-5,5′-bi-1,3-thiazol-2-yl)-1H-imidazol-2-yl)-1-pyrrolidinyl)carbonyl)propyl)carbamate]",10 to 10000 nM,
"COCC[C@H](NC(=O)OC)C(=O)N1CCC[C@H]1c1ncc(-c2ncc(-c3cnc(-c4cnc([C@@H]5CCCN5C(=O)[C@H](CCOC)NC(=O)OC)[nH]4)s3)s2)[nH]1 [Example 13, Methyl ((1S)-3-methoxy-1-(((2S)-2-(4-(2′-(2-((2S)-1-(N-(methoxycarbonyl)-O-methyl-L-homoseryl)-2-pyrrolidinyl)-1H-imidazol-4-yl)-5,5′-bi-1,3-thiazol-2-yl)-1H-imidazol-2-yl)-1-pyrrolidinyl)carbonyl)propyl)carbamate]",10 to 10000 nM,
"COC(=O)N[C@H](C(=O)N1CCC[C@H]1c1ncc(-c2cnc(-c3ncc(-c4cnc([C@@H]5CCCN5C(=O)[C@@H](NC(=O)OC)C(C)C)[nH]4)s3)s2)[nH]1)C(C)C [Example 14, Methyl ((1S)-1-(((2S)-2-(4-(5′-(2-((2S)-1-((2S)-2-((methoxycarbonyl)amino)-3-methylbutanoyl)-2-pyrrolidinyl)-1H-imidazol-4-yl)-2,2′-bi-1,3-thiazol-5-yl)-1H-imidazol-2-yl)-1-pyrrolidinyl)carbonyl)-2-methylpropyl)carbamate]",< 1 nM,
"COCC[C@H](NC(=O)OC)C(=O)N1CCC[C@H]1c1ncc(-c2cnc(-c3ncc(-c4cnc([C@@H]5CCCN5C(=O)[C@H](CCOC)NC(=O)OC)[nH]4)s3)s2)[nH]1 [Example 15, Methyl ((1S)-3-methoxy-1-(((2S)-2-(4-(5′-(2-((2S)-1-(N-(methoxycarbonyl)-O-methyl-L-homoseryl)-2-pyrrolidinyl)-1H-imidazol-4-yl)-2,2′-bi-1,3-thiazol-5-yl)-1H-imidazol-2-yl)-1-pyrrolidinyl)carbonyl)propyl)carbamate]",,2.38 nM
"COC(=O)N[C@@H](C(=O)N1CCC[C@H]1c1ncc(-c2cnc(-c3ncc(-c4cnc([C@@H]5CCCN5C(=O)[C@H](NC(=O)OC)c5ccccc5)[nH]4)s3)s2)[nH]1)c1ccccc1 [Example 16, Dimethyl (2,2′-bi-1,3-thiazole-5,5′-diylbis(1H-imidazole-4,2-diyl(2S)-2,1-pyrrolidinediyl((1R)-2-oxo-1-phenyl-2,1-ethanediyl)))biscarbamate]",< 1 nM,
"CN(C)[C@@H](C(=O)N1CCC[C@H]1c1ncc(-c2cnc(-c3ncc(-c4cnc([C@@H]5CCCN5C(=O)[C@@H](c5ccccc5)N(C)C)[nH]4)s3)s2)[nH]1)c1ccccc1 [Example 17, (1R,1′R)-2,2′-(2,2′-Bi-1,3-thiazole-5,5′-diylbis(1H-imidazole-4,2-diyl(2S)-2,1-pyrrolidinediyl))bis(N,N-dimethyl-2-oxo-1-phenylethanamine)]",< 1 nM,
COC(=O)N[C@@H](C(=O)N1CCC[C@H]1c1ncc(-c2cnc(-c3ncc(-c4cnc([C@@H]5CCCN5C(=O)[C@H](NC(=O)OC)C(C)C)[nH]4)s3)s2)[nH]1)C(C)C [Example 18],10 to 10000 nM,
